Where “and” joins values, the source holds several entries; their conditions need not be identical. Identical values can stand only once.
Assay: xn = mol fraction of the nth substance listed

Cc1ccccn1 + O
viscosity [mPa·s]
Conditions | 298.15 K | 303.15 K | 313.15 K | 323.15 K
101 kPa, x1 = 0.02168 | 1.207 | – | – | –
101 kPa, x1 = 0.05477 | 1.711 | – | – | –
101 kPa, x1 = 0.1594 | 2.779 | – | – | –
101 kPa, x1 = 0.2977 | 3.166 | – | – | –
101 kPa, x1 = 0.6247 | 1.736 | – | – | –
101.3 kPa, x1 = 0.1 | – | 1.916 | 1.467 | 1.168
101.3 kPa, x1 = 0.2 | – | 2.506 | 1.839 | 1.42
101.3 kPa, x1 = 0.3 | – | 2.594 | 1.909 | 1.465
101.3 kPa, x1 = 0.3999 | – | 2.364 | 1.757 | 1.362
101.3 kPa, x1 = 0.4997 | – | 1.982 | 1.515 | 1.201
101.3 kPa, x1 = 0.5999 | – | 1.554 | 1.237 | 1.008
101.3 kPa, x1 = 0.7 | – | 1.234 | 1.016 | 0.8611
101.3 kPa, x1 = 0.8146 | – | 0.9988 | 0.8497 | 0.7336
101.3 kPa, x1 = 0.8999 | – | 0.8499 | 0.7339 | 0.6501

O=[N+]([O-])[O-].O=[N+]([O-])[O-].O=[N+]([O-])[O-].[Nd+3] + O
viscosity [mPa·s], 101.3 kPa
Conditions | x1 = 0.009316 | x1 = 0.01807 | x1 = 0.02726 | x1 = 0.03634 | x1 = 0.05266 | x1 = 0.06916 | x1 = 0.07185
293.15 K | 1.299 | 1.721 | 2.369 | 3.383 | 6.774 | 14.9 | 17.16
298.15 K | 1.159 | 1.53 | 2.106 | 2.967 | 5.8 | 12.34 | 14.09
308.15 K | 0.9433 | 1.242 | 1.696 | 2.353 | 4.38 | 8.715 | 9.848

[Cl-].[Na+] + O
Conditions | viscosity
293.15 K, 101.3 kPa, x1 = 0.02 | 1.079 mPa·s
293.15 K, 101.3 kPa, x1 = 0.03479 | 1.188 mPa·s
295.95 K, 100 kPa, x1 = 0.045 | 1.205 mPa·s
296.05 K, 100 kPa, x1 = 0.006 | 0.95 mPa·s
296.17 K, 100 kPa, x1 = 0.06928 | 1.448 mPa·s
296.24 K, 100 kPa, x1 = 0.06928 | 1.444 mPa·s
296.26 K, 100 kPa, x1 = 0.06928 | 1.444 mPa·s
296.5 K, 100 kPa, x1 = 0.045 | 1.192 mPa·s
296.51 K, 100 kPa, x1 = 0.045 | 1.191 mPa·s
296.65 K, 100 kPa, x1 = 0.008493 | 0.958 mPa·s and 0.96 mPa·s
296.77 K, 100 kPa, x1 = 0.06928 | 1.427 mPa·s
297.15 K, 100 kPa, x1 = 0.01884 | 1.001 mPa·s and 1.002 mPa·s
298.15 K, 100 kPa, x1 = 0.04394 | 1.132 mPa·s
298.15 K, 100 kPa, x1 = 0.05559 | 1.241 mPa·s
298.15 K, 101.3 kPa, x1 = 0.001798 | 0.8994 mPa·s
298.15 K, 101.3 kPa, x1 = 0.005732 | 0.9164 mPa·s
298.15 K, 101.3 kPa, x1 = 0.009 | 0.9256 mPa·s
298.15 K, 101.3 kPa, x1 = 0.01421 | 0.9571 mPa·s
298.15 K, 101.3 kPa, x1 = 0.02 | 0.9683 mPa·s
298.15 K, 101.3 kPa, x1 = 0.02116 | 0.9928 mPa·s
298.15 K, 101.3 kPa, x1 = 0.03479 | 1.071 mPa·s
298.15 K, 101.32 kPa, x1 = 0.09892 | 1.633 mPa·s
298.65 K, 100 kPa, x1 = 0.07389 | 1.412 mPa·s and 1.413 mPa·s and 1.41 mPa·s
300.65 K, 100 kPa, x1 = 0.08874 | 1.525 mPa·s
301.01 K, 100 kPa, x1 = 0.09185 | 1.546 mPa·s
301.02 K, 100 kPa, x1 = 0.09185 | 1.545 mPa·s
301.09 K, 100 kPa, x1 = 0.06928 | 1.299 mPa·s
301.12 K, 100 kPa, x1 = 0.06928 | 1.298 mPa·s
301.15 K, 100 kPa, x1 = 0.008493 | 0.868 mPa·s
301.25 K, 100 kPa, x1 = 0.01884 | 0.9164 mPa·s and 0.9176 mPa·s
301.59 K, 100 kPa, x1 = 0.045 | 1.071 mPa·s
301.67 K, 100 kPa, x1 = 0.045 | 1.067 mPa·s
301.68 K, 100 kPa, x1 = 0.045 | 1.069 mPa·s
301.71 K, 100 kPa, x1 = 0.09185 | 1.521 mPa·s
301.87 K, 100 kPa, x1 = 0.06928 | 1.277 mPa·s
303.15 K, 100 kPa, x1 = 0.02582 | 0.92 mPa·s
303.15 K, 101 kPa, x1 = 0.008924 | 0.8232 mPa·s
303.15 K, 101 kPa, x1 = 0.01768 | 0.8649 mPa·s
303.15 K, 101 kPa, x1 = 0.02626 | 0.911 mPa·s
303.15 K, 101.3 kPa, x1 = 0.001 | 0.807 mPa·s
303.15 K, 101.3 kPa, x1 = 0.009 | 0.8358 mPa·s
303.15 K, 101.3 kPa, x1 = 0.02 | 0.8758 mPa·s
303.15 K, 101.3 kPa, x1 = 0.03479 | 0.9703 mPa·s
303.65 K, 100 kPa, x1 = 0.04394 | 1.016 mPa·s and 1.019 mPa·s
304.15 K, 100 kPa, x1 = 0.05559 | 1.096 mPa·s and 1.095 mPa·s
308.15 K, 100 kPa, x1 = 0.07389 | 1.166 mPa·s
308.15 K, 101.3 kPa, x1 = 0.001798 | 0.7274 mPa·s
308.15 K, 101.3 kPa, x1 = 0.00359 | 0.7334 mPa·s
308.15 K, 101.3 kPa, x1 = 0.005732 | 0.7425 mPa·s
308.15 K, 101.3 kPa, x1 = 0.008927 | 0.7567 mPa·s
308.15 K, 101.3 kPa, x1 = 0.01421 | 0.7787 mPa·s
308.15 K, 101.3 kPa, x1 = 0.02116 | 0.81 mPa·s
308.65 K, 100 kPa, x1 = 0.07389 | 1.151 mPa·s and 1.152 mPa·s
308.66 K, 100 kPa, x1 = 0.06928 | 1.115 mPa·s and 1.116 mPa·s
308.68 K, 100 kPa, x1 = 0.06928 | 1.116 mPa·s
308.71 K, 100 kPa, x1 = 0.06928 | 1.113 mPa·s
308.73 K, 100 kPa, x1 = 0.06928 | 1.113 mPa·s
309.04 K, 100 kPa, x1 = 0.045 | 0.9262 mPa·s
309.11 K, 100 kPa, x1 = 0.045 | 0.926 mPa·s
309.26 K, 100 kPa, x1 = 0.045 | 0.9211 mPa·s
313.15 K, 100 kPa, x1 = 0.05559 | 0.926 mPa·s and 0.924 mPa·s
313.15 K, 101 kPa, x1 = 0.008924 | 0.6852 mPa·s
313.15 K, 101 kPa, x1 = 0.01768 | 0.7209 mPa·s
313.15 K, 101 kPa, x1 = 0.02626 | 0.759 mPa·s
313.15 K, 101.3 kPa, x1 = 0.001 | 0.668 mPa·s
313.15 K, 101.3 kPa, x1 = 0.009 | 0.6992 mPa·s
313.15 K, 101.3 kPa, x1 = 0.02 | 0.7327 mPa·s
313.15 K, 101.3 kPa, x1 = 0.03479 | 0.8126 mPa·s
313.15 K, 101.32 kPa, x1 = 0.1014 | 1.281 mPa·s
313.65 K, 100 kPa, x1 = 0.008493 | 0.679 mPa·s
313.65 K, 100 kPa, x1 = 0.02582 | 0.751 mPa·s and 0.75 mPa·s and 0.748 mPa·s
314.15 K, 100 kPa, x1 = 0.04394 | 0.834 mPa·s
317.65 K, 100 kPa, x1 = 0.08874 | 1.092 mPa·s and 1.096 mPa·s
318.15 K, 100 kPa, x1 = 0.07389 | 0.974 mPa·s and 0.97 mPa·s and 0.973 mPa·s
318.15 K, 101.3 kPa, x1 = 0.001798 | 0.6031 mPa·s
318.15 K, 101.3 kPa, x1 = 0.00359 | 0.6082 mPa·s
318.15 K, 101.3 kPa, x1 = 0.005732 | 0.6163 mPa·s
318.15 K, 101.3 kPa, x1 = 0.008927 | 0.6293 mPa·s
318.15 K, 101.3 kPa, x1 = 0.01421 | 0.6488 mPa·s
323.15 K, 101 kPa, x1 = 0.008924 | 0.5852 mPa·s
323.15 K, 101 kPa, x1 = 0.01768 | 0.617 mPa·s
323.15 K, 101 kPa, x1 = 0.02626 | 0.6491 mPa·s
323.15 K, 101.3 kPa, x1 = 0.009 | 0.6002 mPa·s
323.15 K, 101.3 kPa, x1 = 0.02 | 0.6302 mPa·s
323.15 K, 101.3 kPa, x1 = 0.03479 | 0.6611 mPa·s

— the CheMixHub viscosity set
